Data from article PMC8752738, “A propolis-derived small molecule ameliorates metabolic syndrome in obese mice by targeting the CREB/CRTC2 transcriptional complex” (Nature Communications, 2022).
“And” between values parts separate entries of the source, which are not always exact repeats. Equal entries are not always repeated.

System: tissue mRNA levels
Assay: Quantitative PCR of tissue gene expression in treated mice;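 for mRNA levels Retn: daily intraperitoneal dosing for 5 weeks versus vehicle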;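 for mRNA levels Srebf-1c: daily intraperitoneal dosing for 5 weeks versus vehicle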;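 for mRNA levels Srebf-2: daily intraperitoneal dosing for 5 weeks versus vehicle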;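 for mRNA levels Tnfaip2: daily intraperitoneal dosing for 5 weeks versus vehicle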
Assay type: in vivo, mouse
Parameters: key to mRNA levels Scap / mRNA levels Insig1 / mRNA levels Ldlr / mRNA levels Mttp / mRNA levels Atgl / mRNA levels Tnfaip2 / mRNA levels Rxra / mRNA levels Srebf1 / mRNA levels Ucp2: mRNA level normalized to ribosomal L32 mRNA (internal control)
Protocol: Total RNA from cells and tissues was extracted by Trizol (Invitrogen) and reverse-transcribed into cDNA using the prime script RT reagent kit with gDNA eraser (Takara). The mRNA levels were determined using the SYBR-green PCR kit (Takara) with ABIPRISM 7900HT Sequence detector (ABI) according to the manufacturer’s protocol. The quantitative qPCR primers used in this work are listed in Supplementary Table 1. Ribosomal L32 mRNA levels were used as an internal control.

[1] = Figure 6d, white fat (WF) tissue of DIO mice, individual animals
[2] = db/db mice, liver, individual mouse, relative to VEH
[3] = liver of DIO mice, individual animals, n=5, relative to VEH

Compound: CC(C)=CCc1cc(C=CC(=O)O)cc(CC=C(C)C)c1O [APC, 3,5-diprenyl-4-hydroxycinnamic acid]
- mRNA levels Retn [1]: 0.123 and 0.143 and 0.2381 and 0.235 and 0.5597 and 0.5846
- mRNA levels Scd1 [1]: 0.2084 and 0.3568 and 0.6736 and 0.7934 and 0.506 and 0.7156
- mRNA levels Srebf-1c [1]: 0.5354 and 0.1144 and 0.4679 and 0.2361 and 0.4842 and 0.3947
- mRNA levels Srebf-2 [1]: 0.5798 and 0.5629 and 0.8096 and 0.529 and 0.7852 and 0.6266
- mRNA levels Tnfaip2 [1]: 1.35 and 1.386 and 0.7621 and 0.8823 and 0.8616 and 0.7122
- Mean Diff. (Veh. vs. treated; head of the quantity not shown, section just before Figure 7h) (WT mice, Met 200mg/kg or APC-20): 0.5814
- CREB targets in tissues: Brain-Creb, Mean of APC (brain, Creb mRNA, group mean): 1.036
- CREB targets in tissues: Brain-Creb (brain, Creb mRNA, individual animals): 1.197 and 1.012 and 0.7996 and 1.136
- CREB targets in tissues: Brain-Nr4a1, Mean of APC (brain, Nr4a1 mRNA, group mean): 1.211
- CREB targets in tissues: Brain-Nr4a1 (brain, Nr4a1 mRNA, individual animals): 1.274 and 1.137 and 0.9545 and 1.476
- G6pc mRNA levels in the liver of db/db, Mean of APC (db/db mice, liver, group mean): 0.7471
- Pck1 mRNA levels in the liver of db/db, Mean of APC (db/db mice, liver, group mean): 0.6226
- Pgc1a mRNA levels in the liver of db/db, Mean of APC (db/db mice, liver, group mean): 0.7977
- Pgc1beta mRNA levels in the liver of db/db, Mean of APC (db/db mice, liver, group mean): 0.5441
- G6pc mRNA levels in the liver of db/db [2]: 0.8066 and 0.775 and 0.6553 and 0.7287 and 0.77
- Pck1 mRNA levels in the liver of db/db [2]: 0.6945 and 0.6263 and 0.76 and 0.3641 and 0.668
- Pgc1a mRNA levels in the liver of db/db [2]: 0.6615 and 0.9739 and 0.731 and 0.852 and 0.77
- Pgc1beta mRNA levels in the liver of db/db [2]: 0.4871 and 0.4573 and 0.6546 and 0.4823 and 0.6391
- CREB targets in tissues: Intestine-Creb, Mean of APC (intestine, Creb mRNA, group mean): 0.8467
- CREB targets in tissues: Intestine-Creb (intestine, Creb mRNA, individual animals): 1.179 and 0.6319 and 0.7341 and 0.8415
- CREB targets in tissues: Intestine-Gcg, Mean of APC (intestine, Gcg mRNA, group mean): 1.011
- CREB targets in tissues: Intestine-Gcg (intestine, Gcg mRNA, individual animals): 1.309 and 1.259 and 0.7551 and 0.7184
- CREB targets in tissues: Intestine-Nr4a1, Mean of APC (intestine, Nr4a1 mRNA, group mean): 0.8751
- CREB targets in tissues: Intestine-Nr4a1 (intestine, Nr4a1 mRNA, individual animals): 0.8692 and 0.9136 and 0.8672 and 0.8504
- CREB targets in tissues: Kidney-Creb, Mean of APC (kidney, Creb mRNA, group mean): 1.013
- CREB targets in tissues: Kidney-Creb (kidney, Creb mRNA, individual animals): 1.268 and 1.031 and 0.912 and 0.8402
- CREB targets in tissues: Kidney-Nr4a1, Mean of APC (kidney, Nr4a1 mRNA, group mean): 1.291
- CREB targets in tissues: Kidney-Nr4a1 (kidney, Nr4a1 mRNA, individual animals): 1.347 and 1.276 and 1.454 and 1.087
- mRNA levels of nuclear receptor in the liver of DIO mice: Lxrα [3]: 0.586 and 0.8678 and 0.6768 and 0.6509 and 0.6469
- mRNA levels of nuclear receptor in the liver of DIO mice: Pparα [3]: 0.9724 and 0.9732 and 1.109 and 1.163 and 1.051
- mRNA levels of nuclear receptor in the liver of DIO mice: Pparγ [3]: 1.158 and 1.005 and 1.0158 and 1.1983 and 1.083
- mRNA levels of nuclear receptor in the liver of DIO mice: Rxrα [3]: 0.9006 and 1.063 and 0.8578 and 0.9925 and 1.111
- mRNA levels of nuclear receptor in the liver of DIO mice: Lxrα, group mean (Mean 1) (liver of DIO mice, mean of N=5): 0.6857
- mRNA levels of nuclear receptor in the liver of DIO mice: Pparα, group mean (Mean 1) (liver of DIO mice, mean of N=5): 1.054
- mRNA levels of nuclear receptor in the liver of DIO mice: Pparγ, group mean (Mean 1) (liver of DIO mice, mean of N=5): 1.092
- mRNA levels of nuclear receptor in the liver of DIO mice: Rxrα, group mean (Mean 1) (liver of DIO mice, mean of N=5): 0.9849
- CREB targets in tissues: Mus-Creb, Mean of APC (muscle, Creb mRNA, group mean): 1.048
- CREB targets in tissues: Mus-Creb (muscle, Creb mRNA, individual animals): 1.0591 (2×) and 0.9897 and 1.082
- CREB targets in tissues: Mus-Nr4a1, Mean of APC (muscle, Nr4a1 mRNA, group mean): 1.244
- CREB targets in tissues: Mus-Nr4a1 (muscle, Nr4a1 mRNA, individual animals): 1.457 (2×) and 0.6913 and 1.369
- CREB targets in tissues: Mus-Pdk1, Mean of APC (muscle, Pdk1 mRNA, group mean): 0.9489
- CREB targets in tissues: Mus-Pdk1 (muscle, Pdk1 mRNA, individual animals): 0.9576 (2×) and 0.8606 and 1.02
- liver mRNA levels of Srebp-1c and 2 in CRTC2 knockout mice (oral 20 mg/kg daily, 3 weeks): did not further decrease
- CREB targets in tissues: Pancreac-C2cd4a, Mean of APC (pancreas, C2cd4a mRNA, group mean): 0.9353
- CREB targets in tissues: Pancreac-C2cd4a (pancreas, C2cd4a mRNA, individual animals): 1.193 and 0.8753 and 0.8055 and 0.8678
- CREB targets in tissues: Pancreac-Creb, Mean of APC (pancreas, Creb mRNA, group mean): 1.238
- CREB targets in tissues: Pancreac-Creb (pancreas, Creb mRNA, individual animals): 1.233 and 1.182 and 1.267 and 1.269
- CREB targets in tissues: Pancreac-Nr4a1, Mean of APC (pancreas, Nr4a1 mRNA, group mean): 1.238
- CREB targets in tissues: Pancreac-Nr4a1 (pancreas, Nr4a1 mRNA, individual animals): 0.9381 and 1.521 and 1.263 and 1.23
- CREB targets in tissues: Spleen-Creb, Mean of APC (spleen, Creb mRNA, group mean): 1.07
- CREB targets in tissues: Spleen-Creb (spleen, Creb mRNA, individual animals): 1.294 and 1.069 and 0.8334 and 1.085
- CREB targets in tissues: Spleen-Nr4a1, Mean of APC (spleen, Nr4a1 mRNA, group mean): 1.115
- CREB targets in tissues: Spleen-Nr4a1 (spleen, Nr4a1 mRNA, individual animals): 1.516 and 1.042 and 0.6673 and 1.233
